From ChEMBL document CHEMBL1130110 (J Med Chem, 1997)

Tests used:
[1] = molecular target: Glucagon receptor (Rattus norvegicus) (UniProt P30082); assay: Percent stimulation of cAMP production over basal.; format: functional; design: concentration or dose not given beside the values
[2] = molecular target: Glucagon receptor (Rattus norvegicus) (UniProt P30082); assay: Relative binding potency expressed as receptor binding IC50 for glucagon by receptor binding IC50 for compound

Glucagon receptor (Rattus norvegicus), sequence (P30082 whole entry): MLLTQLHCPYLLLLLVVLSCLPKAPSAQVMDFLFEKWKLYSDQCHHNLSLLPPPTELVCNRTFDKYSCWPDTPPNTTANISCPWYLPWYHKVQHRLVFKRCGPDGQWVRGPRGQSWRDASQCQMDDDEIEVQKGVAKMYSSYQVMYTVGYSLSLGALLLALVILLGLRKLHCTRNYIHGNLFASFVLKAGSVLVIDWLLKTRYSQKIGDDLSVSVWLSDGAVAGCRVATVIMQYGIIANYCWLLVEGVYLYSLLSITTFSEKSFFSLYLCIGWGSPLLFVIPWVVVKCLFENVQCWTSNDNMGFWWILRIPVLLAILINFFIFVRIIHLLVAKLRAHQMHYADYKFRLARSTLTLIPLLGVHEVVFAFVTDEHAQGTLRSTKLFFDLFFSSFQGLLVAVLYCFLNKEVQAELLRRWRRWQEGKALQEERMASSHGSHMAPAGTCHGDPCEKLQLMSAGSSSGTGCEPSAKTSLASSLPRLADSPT

| Activity [1] | Activity [2] | SMILES |
| --- | --- | --- |
| 12% | 3.1% | CCCC[C@H](NC(=O)[C@H](NC(=O)CNC(=O)[C@@H](CCC(N)=O)NC(=O)[C@H](N)CO)[C@H](C)O)C(=O)N[C@@H](C(=O)N[C@H](CO)C(=O)N[C@H](CCC(=O)O)C(=O)N[C@H](Cc1ccc(O)cc1)C(=O)N[C@H](CO)C(=O)N[C@H](CCCCN)C(=O)N[C@H](Cc1ccc(O)cc1)C(=O)N[C@H](CC(C)C)C(=O)N[C@H](CC(=O)O)C(=O)N[C@H](CO)C(=O)N[C@H](CCCN=C(N)N)C(=O)N[C@H](CCCN=C(N)N)C(=O)N[C@H](C)C(=O)N[C@H](CCC(N)=O)C(=O)N[C@H](CC(=O)O)C(=O)N[C@H](Cc1ccccc1)C(=O)N[C@@H](C(=O)N[C@H](CCC(N)=O)C(=O)N[C@H](Cc1c[nH]c2ccccc12)C(=O)N[C@H](CC(C)C)C(=O)N[C@H](CCSC)C(=O)N[C@H](CC(N)=O)C(=O)N[C@@H](C(N)=O)[C@H](C)O)C(C)C)[C@H](C)O |
| 0% | 1.2% | CSCC[C@@H](NC(=O)[C@@H](CC(C)C)NC(=O)[C@@H](Cc1c[nH]c2ccccc12)NC(=O)[C@@H](CCC(N)=O)NC(=O)[C@H](NC(=O)[C@@H](Cc1ccccc1)NC(=O)[C@@H](CC(=O)O)NC(=O)[C@@H](CCC(N)=O)NC(=O)[C@@H](C)NC(=O)[C@@H](CCCN=C(N)N)NC(=O)[C@@H](CCCN=C(N)N)NC(=O)[C@@H](CO)NC(=O)[C@@H](CC(=O)O)NC(=O)[C@@H](CC(C)C)NC(=O)[C@@H](Cc1ccc(O)cc1)NC(=O)[C@@H](CCCCN)NC(=O)[C@@H](CO)NC(=O)[C@@H](Cc1ccc(O)cc1)NC(=O)[C@@H](CCC(=O)O)NC(=O)[C@@H](CO)NC(=O)[C@H](NC(=O)[C@@H](C)NC(=O)[C@H](NC(=O)CNC(=O)[C@@H](CCC(N)=O)NC(=O)[C@H](N)CO)[C@H](C)O)[C@H](C)O)C(C)C)C(=O)N[C@H](CC(N)=O)C(=O)N[C@@H](C(N)=O)[C@H](C)O |
| 0% | 0.3% | CC(C)C[C@@H](NC(=O)[C@@H](Cc1ccc(O)cc1)NC(=O)[C@@H](CCCCN)NC(=O)[C@@H](CO)NC(=O)[C@@H](Cc1ccc(O)cc1)NC(=O)[C@@H](CC(=O)O)NC(=O)[C@@H](CO)NC(=O)[C@H](NC(=O)[C@H](NC(=O)CNC(=O)[C@@H](CCC(N)=O)NC(=O)[C@@H](CO)NC(=O)[C@H](N)Cc1c[nH]cn1)[C@H](C)O)[C@H](C)O)C(=O)N[C@H](CC(=O)O)C(=O)N[C@H](CO)C(=O)N[C@H](CCCN=C(N)N)C(=O)N[C@H](CCCN=C(N)N)C(=O)N[C@H](C)C(=O)N[C@H](CCC(N)=O)C(=O)N[C@H](CC(=O)O)C(=O)N[C@H](Cc1ccccc1)C(=O)N[C@@H](C(=O)N[C@H](CCC(N)=O)C(=O)N[C@H](Cc1c[nH]c2ccccc12)C(=O)N[C@H](CC(C)C)C(=O)N[C@H](CCS)C(=O)N[C@H](CC(N)=O)C(=O)N[C@@H](C=O)[C@H](C)O)C(C)C |
| 0% | < 0.1% | CSCC[C@@H](NC(=O)[C@@H](CC(C)C)NC(=O)[C@@H](Cc1c[nH]c2ccccc12)NC(=O)[C@@H](CCC(N)=O)NC(=O)[C@H](NC(=O)[C@@H](Cc1ccccc1)NC(=O)[C@@H](CC(=O)O)NC(=O)[C@@H](CCC(N)=O)NC(=O)[C@@H](C)NC(=O)[C@@H](CCCN=C(N)N)NC(=O)[C@@H](CCCN=C(N)N)NC(=O)[C@@H](CO)NC(=O)[C@@H](CC(=O)O)NC(=O)[C@@H](CC(C)C)NC(=O)[C@@H](Cc1ccc(O)cc1)NC(=O)[C@@H](CCCCN)NC(=O)[C@@H](CO)NC(=O)[C@@H](Cc1ccc(O)cc1)NC(=O)[C@@H](CCC(=O)O)NC(=O)[C@@H](CO)NC(=O)[C@H](NC(=O)[C@@H](CC(=O)O)NC(=O)[C@H](NC(=O)CNC(=O)[C@@H](CCC(N)=O)NC(=O)[C@H](N)CO)[C@H](C)O)[C@H](C)O)C(C)C)C(=O)N[C@H](CC(N)=O)C(=O)N[C@@H](C(N)=O)[C@H](C)O |

Continued, molecule first:

| SMILES | Activity [1] | Activity [2] |
| --- | --- | --- |
| CSCC[C@@H](NC(=O)[C@@H](CC(C)C)NC(=O)[C@@H](Cc1c[nH]c2ccccc12)NC(=O)[C@@H](CCC(N)=O)NC(=O)[C@H](NC(=O)[C@@H](Cc1ccccc1)NC(=O)[C@@H](CC(=O)O)NC(=O)[C@@H](CCC(N)=O)NC(=O)[C@@H](C)NC(=O)[C@@H](CCCN=C(N)N)NC(=O)[C@@H](CCCN=C(N)N)NC(=O)[C@@H](CO)NC(=O)[C@@H](CC(=O)O)NC(=O)[C@@H](CC(C)C)NC(=O)[C@@H](Cc1ccc(O)cc1)NC(=O)[C@@H](CCCCN)NC(=O)[C@@H](CO)NC(=O)[C@@H](Cc1ccc(O)cc1)NC(=O)[C@@H](CCC(=O)O)NC(=O)[C@@H](CO)NC(=O)[C@H](NC(=O)[C@H](NC(=O)CNC(=O)[C@@H](CCC(N)=O)NC(=O)[C@H](N)CO)[C@H](C)O)[C@H](C)O)C(C)C)C(=O)N[C@H](CC(N)=O)C(=O)N[C@@H](C(=O)O)[C@H](C)O (stereo in doubt; 12) | 0% | < 0.1% |
| CSCC[C@@H](NC(=O)[C@@H](CC(C)C)NC(=O)[C@@H](Cc1c[nH]c2ccccc12)NC(=O)[C@@H](CCC(N)=O)NC(=O)[C@H](NC(=O)[C@@H](Cc1ccccc1)NC(=O)[C@@H](CC(=O)O)NC(=O)[C@@H](CCC(N)=O)NC(=O)[C@@H](C)NC(=O)[C@@H](CCCN=C(N)N)NC(=O)[C@@H](CCCN=C(N)N)NC(=O)[C@@H](CO)NC(=O)[C@@H](CC(=O)O)NC(=O)[C@@H](CC(C)C)NC(=O)[C@@H](Cc1ccc(O)cc1)NC(=O)[C@@H](CCCCN)NC(=O)[C@@H](CO)NC(=O)[C@@H](Cc1ccc(O)cc1)NC(=O)[C@@H](CC(=O)O)NC(=O)[C@@H](CO)NC(=O)[C@H](NC(=O)[C@H](NC(=O)CNC(=O)[C@@H](CCC(N)=O)NC(=O)[C@H](N)CO)[C@H](C)O)[C@H](C)O)C(C)C)C(=O)N[C@H](CC(N)=O)C(=O)N[C@@H](C(=O)O)[C@H](C)O | 0% | 1% |
| CSCC[C@@H](NC(=O)[C@@H](CC(C)C)NC(=O)[C@@H](Cc1c[nH]c2ccccc12)NC(=O)[C@@H](CCC(N)=O)NC(=O)[C@H](NC(=O)[C@@H](Cc1ccccc1)NC(=O)[C@@H](CC(=O)O)NC(=O)[C@@H](CCC(N)=O)NC(=O)[C@@H](C)NC(=O)[C@@H](CCCN=C(N)N)NC(=O)[C@@H](CCCN=C(N)N)NC(=O)[C@@H](CO)NC(=O)[C@@H](CC(=O)O)NC(=O)[C@@H](CC(C)C)NC(=O)[C@@H](Cc1ccc(O)cc1)NC(=O)[C@@H](CCCCN)NC(=O)[C@@H](CO)NC(=O)[C@@H](Cc1ccc(O)cc1)NC(=O)[C@@H](CCC(=O)O)NC(=O)[C@@H](CO)NC(=O)[C@H](NC(=O)[C@@H](Cc1ccccc1)NC(=O)[C@H](NC(=O)[C@@H](CCC(N)=O)NC(=O)[C@H](N)CO)[C@H](C)O)[C@H](C)O)C(C)C)C(=O)N[C@H](CC(N)=O)C(=O)N[C@@H](C(N)=O)[C@H](C)O | 6% | 3% |
| CSCC[C@@H](NC(=O)[C@@H](CC(C)C)NC(=O)[C@@H](Cc1c[nH]c2ccccc12)NC(=O)[C@@H](CCC(N)=O)NC(=O)[C@H](NC(=O)[C@@H](Cc1ccccc1)NC(=O)[C@@H](CC(=O)O)NC(=O)[C@@H](CCC(N)=O)NC(=O)[C@@H](C)NC(=O)[C@@H](CCCN=C(N)N)NC(=O)[C@@H](CCCN=C(N)N)NC(=O)[C@@H](CO)NC(=O)[C@@H](CC(=O)O)NC(=O)[C@@H](CC(C)C)NC(=O)[C@@H](Cc1ccc(O)cc1)NC(=O)[C@@H](CCCCN)NC(=O)[C@@H](CO)NC(=O)[C@@H](Cc1ccc(O)cc1)NC(=O)[C@@H](CCC(=O)O)NC(=O)[C@@H](CO)NC(=O)[C@H](NC(=O)[C@H](NC(=O)CNC(=O)[C@@H](CCC(N)=O)NC(=O)[C@@H](CO)NC(=O)[C@H](N)Cc1c[nH]cn1)[C@H](C)O)[C@H](C)O)C(C)C)C(=O)N[C@H](CC(N)=O)C(=O)N[C@@H](C(N)=O)[C@H](C)O | 0% | 1.3% |
